In data set [1] the test system is P388 mouse leukemia cells. Nature of the data set: Effect against P388 mouse leukemia cell (in vitro test). The format is cell-based. The protocol:
(1) Effect against P388 mouse leukemia cell (in vitro test)
P388 leukemia cells have been subcultured in abdominal cavity of DBA/2 mouse. […] A suspension of 5×10^4 cells/ml containing a test compound is prepared and is cultured in a wet atmosphere containing 5% CO2 at 37° C. for 48 hours.
Number of cells before and after culturing is counted by coulter counter. Proliferative ratio is defined as ratio of the increase in cells after proliferation for 48 hours to an increase in cells cultured in a suspension containing no test compound. Inhibition ratio (IR) is defined as follows: […]
1--(proliferative ratio).
In other words, [formula] where C^treated : number of cells after culturing for 48 hours in the presence of a treated compound
C^non : number of cells after culturing for 48 hours in the absence of a test compound
Co : number of cells when culturing is initiated.

Data set [2] has as its system P388 mouse leukemia cells. In words: Effect against survival time of mouse transplanted with P388 mouse leukemia cells (in vivo test, intraperitoneal administration). The arrangement: species or system mouse (CDF1). To be noted: intraperitoneally, first and fifth days. The text has this: (2) Effect against survival time of mouse transplanted with P388 mouse leukemia cells (in vivo test, intraperitoneal administration)
(§1) Tumor: P388 mouse leukemia.
(§2) Animals: CDF1 (BALB/C×DBA/2) mouse .male.5 weeks breeding, one group: 6 mice.
(§3) Number of cells transplanted: 10^6 /mouse, intraperitoneal administration.
Dosage: Test compound administered twice, i.e. the first and fifth days, intraperitoneally. Test compound hardly soluble or insoluble in water is applied in a solution or a suspension form by use of Tween 80.
(§4) Evaluation: Increase life span (ILS) is calculated on the basis of median survival times (T) and (C) of treated groups and controls, repsctively: [formula] (3) Effect against survival times of mouse transplanted with P388 mouse leukemia cells (in vivo test; intravenous or per os administration)

Data set [3] concerns P388 mouse leukemia cells. Nature of the data set: Effect against survival times of mouse transplanted with P388 mouse leukemia cells (in vivo test; per os administration). Set-up: species or system mouse (CDF1). The conditions noted are these: po, once, first day. The protocol:
as §1, §2, §3, §4
(§5) Similar to (2), but a test compound administered once, i.e., only the first day, intravenously or orally.

Data set [4] in a line: Toxicity test (maximum tolerated dose). To be noted: mouse, in vivo; single application; BALB/C mice, ten a group; largest amount where no death is seen. The text has this:
The largest amount where no death of mice is seen is defined as maximum tolerated dose.

In data set [5] the test system is P388 mouse leukemia cells. In words: Effect against survival times of mouse transplanted with P388 mouse leukemia cells (in vivo test; intravenous). The arrangement: species or system mouse (CDF1). To be noted: once, first day. Here is the method:
as §1, §2, §3, §4, §5

Where [6] appears, read: P388, 1 γ/ml, 48 hours, read-out: Inhibition ratio (IR).
Setting [7] is: P388, 10^-1 γ/ml, 48 hours, read-out: Inhibition ratio (IR).
Setting [8] is: P388, 10 γ/ml, 48 hours, read-out: Inhibition ratio (IR).
Setting [9] is: P388, 48 h, read-out: Inhibition ratio (IR), 1 γ/ml.
Where [10] appears, read: P388, 48 h, read-out: Inhibition ratio (IR), 10^-1 γ/ml.
Where [11] appears, read: P388, 48 h, read-out: Inhibition ratio (IR), 10 γ/ml.

Each structure is given as a SMILES string. Values joined by “and” are separate entries in the source; they are usually repeats but may differ in a detail not shown here. Identical values can stand only once. Counter-ions that a name gives are not always drawn. Like-named read-outs stand apart in the source and are kept apart here.

Turning to `CC(=O)[C@]1(N)Cc2c(O)c3c(c(O)c2[C@@H](OC2CCCCO2)C1)C(=O)c1ccccc1C3=O` (single isomer, unassigned) [Example 10-A, 7-0-tetrahydropyranyl-9α-amino-9β-acetyl-7,8,9,10-tetrahydro-6,7α,11-trihydroxy-5,12-naphthacenedione], in data set [1] (setting [6]), the inhibition at 1 µg/mL came out at 94.4%. For the same compound, in data set [1] (setting [7]), the inhibition at 0.1 µg/mL came to 94.6%. In addition, the inhibition at 10 µg/mL in data set [1] (setting [8]) was determined as 89%. Further, the entries for the “Increase life span (ILS)” value in data set [2] (6.25 mg/kg), in data set [2] (12.5 mg/kg) and in data set [2] (25 mg/kg) were 25%, 77% and 286%, respectively.

In general, MTD refers to the largest dose that counted as tolerated. The low end stands for a narrow tolerated range, the high end for a wide tolerated range. As to `CC(=O)O[C@H]1C[C@H](O[C@H]2C[C@](N)(C(C)=O)Cc3c(O)c4c(c(O)c32)C(=O)c2ccccc2C4=O)OC[C@H]1OC(C)=O` [11 (hydrochloride), d-7α-[(2-deoxy-3,4-di-0-acetyl-β-D-erythro-pentapyranosyl)oxy]-9α-amino-9β-acetyl-7,8,9,10-tetrahydro-6,11-dihydroxy-5,12-naphthacenedione], the inhibition at 1 µg/mL in data set [1] (setting [6]) was 97.9%. The inhibition at 0.1 µg/mL in data set [1] (setting [7]) stood at 1.9%. Besides, the inhibition at 10 µg/mL in data set [1] (setting [8]) was 100%. For the same compound, the ILS is 40% in data set [3] (17.5 mg/kg); 63% in data set [3] (35 mg/kg); -42% in data set [3] (70 mg/kg); 35% in data set [5] (10 mg/kg); 67% in data set [5] (20 mg/kg); -45% in data set [5] (40 mg/kg). In addition, the “Toxic Death” value in data set [3] (70 mg/kg) and in data set [5] (40 mg/kg) was 6/6 each time. Moreover, the MTD in data set [4] was found to be 40 mg/kg. Moreover, the figures for the “Increase life span (ILS)” value in data set [2] (6.25 mg/kg), in data set [2] (12.5 mg/kg) and in data set [2] (25 mg/kg) were 37%, 123% and 280%, respectively.

As for `CC(=O)[C@]1(N)Cc2c(O)c3c(c(O)c2[C@@H](O[C@H]2C[C@H](O)[C@H](O)CO2)C1)C(=O)c1ccccc1C3=O` [12 (hydrochloride), d-7α-[(2-deoxy-β-D-erythro-pentapyranosyl)oxy]-9αamino-9β-acetyl-7,8,9,10-tetrahydro-6,11-dihydroxy-5,12-naphthacenedione], the inhibition at 1 µg/mL in data set [1] (setting [9]) stood at 83.8%. In addition, the inhibition at 0.1 µg/mL in data set [1] (setting [10]) came to 27.5%. Moreover, in data set [1] (setting [11]), the inhibition at 10 µg/mL worked out at 85%. In addition, the ILS in data set [3] (17.5 mg/kg) is recorded as 31%; in data set [3] (35 mg/kg) it was 50%; in data set [3] (70 mg/kg), 86%; in data set [5] (10 mg/kg), 32%; in data set [5] (20 mg/kg) it was 60%; in data set [5] (40 mg/kg) it was -43%. The compound further displayed a maximal tolerated dose (MTD) in data set [4] of 32 mg/kg. Further, the “Toxic Death” value in data set [5] (40 mg/kg) is 6/6.

In the case of `CC[C@@]1(O)C[C@H](O[C@H]2C[C@H](N(C)C)[C@H](O[C@H]3C[C@H](O)[C@H](O[C@H]4CCC(=O)[C@H](C)O4)[C@H](C)O3)[C@H](C)O2)c2c(cc3c(c2O)C(=O)c2c(O)cccc2C3=O)[C@H]1C(=O)OC` [ACM-A, AclacinomycinA, reference compound], the ILS was 11% in data set [3] (10.7 mg/kg), 25% in data set [3] (21.5 mg/kg) and 37% in data set [3] (43 mg/kg).

Regarding `COc1cccc2c1C(=O)c1c(O)c3c(c(O)c1C2=O)C[C@@](O)(C(=O)CO)C[C@@H]3O[C@H]1C[C@H](N)[C@H](O)[C@H](C)O1` [ADR, Adriamycin, reference compound], the inhibition at 1 µg/mL in data set [1] (setting [9]) was determined as 85.9%. In addition, the inhibition at 0.1 µg/mL in data set [1] (setting [10]) was 85%. Further, in data set [1] (P388, 48 h, read-out: Inhibition ratio (IR), 10^-2 γ/ml), the inhibition at 0.01 µg/mL came to 69.2%. The inhibition at 10 µg/mL in data set [1] (setting [11]) amounted to 90.6%. The MTD in data set [4] amounted to 12.5 mg/kg. For the same compound, the ILS in data set [5] (3.75 mg/kg) was found to be 21%; in data set [5] (7.5 mg/kg) it was 47%; in data set [5] (15 mg/kg), 83%. Besides, the “Increase life span (ILS)” value is 58% and 78% and 57% in data set [2] (1 mg/kg, positive control); 90% and 84% in data set [2] (2 mg/kg, positive control); 133% in data set [2] (4 mg/kg, positive control).

`CC(=O)O[C@@H]1[C@H](C)O[C@@H](O[C@H]2C[C@](N)(C(C)=O)Cc3c(O)c4c(c(O)c32)C(=O)c2ccccc2C4=O)C[C@@H]1OC(C)=O` [Example 1, d-7α-[(3,4-di-0-acetyl-2,6-dideoxy-α-L-lyxo-hexopyranosyl)oxy]-9α-amino-9β-acetyl-7,8,9,10-tetrahydro-6,11-dihydroxy-5,12-naphthacenedione]: in data set [1] (setting [6]), the inhibition at 1 µg/mL stood at 84.1%. Besides, in data set [1] (setting [7]), the inhibition at 0.1 µg/mL came out at 32.4%. Also, in data set [1] (setting [8]), the inhibition at 10 µg/mL was found to be 82.7%. Further, the “Increase life span (ILS)” value in data set [2] (6.25 mg/kg) was found to be 42%; in data set [2] (12.5 mg/kg), 86%; in data set [2] (25 mg/kg), 152%.

In the case of `CC(=O)[C@]1(N)Cc2c(O)c3c(c(O)c2[C@@H](O[C@H]2C[C@H](O)[C@H](O)[C@H](C)O2)C1)C(=O)c1ccccc1C3=O` [Example 2, d-7α-[(2,6-dideoxy-α-L-lyxo-lexopyranosyl)oxy]-9α-amino-9β-acetyl-7,8,9,10-tetrahydro-6,11-dihydroxy-5,12-naphthacenedione], the inhibition at 1 µg/mL in data set [1] (setting [6]) came to 84.5%. Further, in data set [1] (setting [7]), the inhibition at 0.1 µg/mL was determined as 44.1%. Also, the inhibition at 10 µg/mL in data set [1] (setting [8]) was determined as 89.9%. Further, the “Increase life span (ILS)” value in data set [2] (6.25 mg/kg) is 135%.

Turning to `CC(=O)[C@]1(N)Cc2c(O)c3c(c(O)c2[C@@H](O[C@H]2C[C@H](N)[C@H](O)[C@H](C)O2)C1)C(=O)c1c(O)cccc1C3=O` [Example 25 (dihydrochloride), d-7α-[(2,3,6-trideoxy-3-amino-α-L-lyxo-hexopyranosyl)oxy]-9α-amino-9β-acetyl-4,6,11-trihydroxy-7,8,9,10-tetrahydro-5,12-naphthacenedione], in data set [1] (setting [6]), the inhibition at 1 µg/mL was determined as 95.7%. The inhibition at 0.1 µg/mL in data set [1] (setting [7]) was determined as 89%. Also, the inhibition at 10 µg/mL in data set [1] (setting [8]) is 99.4%.

Turning to `CC(O)[C@]1(N)Cc2c(O)c3c(c(O)c2[C@@H](OC2CCCCO2)C1)C(=O)c1ccccc1C3=O` (stereo partly drawn) [Example 29, 7-0-tetrahydropyranyl-9α-amino-9β-(1-hydroxyethyl)-7,8,9,10-tetrahydro-6,7α,11-trihydroxy-5,12-naphthacenedione], the inhibition at 1 µg/mL in data set [1] (setting [6]) was 92.9%. Further, in data set [1] (setting [7]), the inhibition at 0.1 µg/mL was found to be 93.5%. Besides, the inhibition at 0.01 µg/mL in data set [1] (P388, 10^-2 γ/ml, 48 hours, read-out: Inhibition ratio (IR)) was determined as 40.1%. The inhibition at 10 µg/mL in data set [1] (setting [8]) is 94.1%. Besides, the “Increase life span (ILS)” value in data set [2] (3.13 mg/kg) is recorded as 66%; in data set [2] (6.25 mg/kg), 126%.

For the origin of these results see patent publication US4673668A, “Aminonaphthacene derivatives” (Sumitomo Pharmaceuticals Company, priority 1982, dated 1987).
